Values of other authors in article PMC7028125 (Clinical Pharmacology in Drug Development, 2019).

Legend:
[1] = mass balance study of 20 mg [14C]‐dolutegravir (80 µCi)
[2] = tested on: organic cation transporter 2; design: method as in PMID 23132334; conditions: in vitro
[3] = tested on: multidrug and toxin extrusion 1 transporter; conditions: in vitro
[4] = tested on: P‐glycoprotein; design: method as in PMID 23132334; conditions: in vitro
[5] = tested on: breast cancer resistance protein; design: method as in PMID 23132334; conditions: in vitro

C[C@@H]1CCO[C@H]2Cn3cc(C(=O)NCc4ccc(F)cc4F)c(=O)c(O)c3C(=O)N12 [Dolutegravir, dolutegravir]
Dolutegravir recovered in feces [1]: 64.0% | Dolutegravir recovered in urine [1]: 31.6% | Inhibition of organic cation transporter 2 (in words) [2]: potently inhibits | Inhibition of multidrug and toxin extrusion 1 transporter (in words) [3]: potently inhibits | Substrate for P‐glycoprotein (in words) [4]: substrate | Substrate for breast cancer resistance protein (in words) [5]: substrate
